Patent publication US9511074B2, “Methods of treating disorders associated with protein polymerization” (UNIVERSITY OF PITTSBURGH—OF THE COMMONWEALTH SYSTEM OF …, priority 2009, dated 2016)
Residues, ends and D or L forms follow the SMILES beside them. *: point of attachment. Cbz = O=C(OCc1ccccc1)*

Assays:
[1] = system: ATZ in the HTO/Z cell line; assay: ATZ levels in HTO/Z cells in the presence of proteasomal inhibitors with or without CBZ; format: cell-based, human; conditions: for levels of ATZ with proteasomal inhibitor alone: no CBZ; for levels of insoluble ATZ in the presence of CBZ: proteasomal inhibitor added for last 6 hours
Procedure: For experiments in which proteasomal inhibitors were used, MG132 was used at 30 μM and lactacystin at 10 μM for the last 6 hours of the incubation with CBZ or control. Cells that were incubated with MG132 or lactacystin alone served as control to validate that the proteasome was inhibited. For investigation of LC3 conversion, lysosomal inhibitors (E64D and pepstatin A at 20 μg/ml) were added to the medium for the last 4 hours of the incubation with CBZ or control. […] If the number of separate experiments done in the cell line models is not specifically indicated in the text or figure legend, at least 3 separate experiments were done in each case.
(§1) For immunoblot analysis to detect AT, GAPDH or LC3, cells were lysed in 50 mM Tris-HCl, 150 mM NaCl, 1% NP-40, pH 8.0. Protein levels were quantified using the BCA protein assay (Pierce Biotechnology, Rockford, Ill.). 10-50 μg samples were loaded onto 7.5% precast gels. PVDF membranes were blocked in TBS, 0.5% Tween 20 (TBST), 5% milk and then incubated with primary antibody in 5% milk TBST solution. Horseradish peroxidase anti-goat Ig or anti-mouse Ig (Jackson Labs, Bar Harbor, Me.) were used as secondary antibodies in TBST. Blots were visualized with Super Signal West Dura or West Femto from Pierce.

[2] = system: ATZ in the HTO/Z cell line; assay: Steady state levels of ATZ in the HTO/Z cell line (immunoblot of insoluble and soluble fractions); format: cell-based, human; conditions: HTO/Z cells
Source text: Cell Lines The human epidermal HeLa cell line with doxycycline-regulated expression of ATZ (HTO/Z) has been described previously (1). HTO/M and HTO/Saar are HeLa cell lines with doxycycline-regulated expression of wild type AT and the AT Saar variant, respectively (1). A murine embryonic fibroblast cell line (MEF) with targeted disruption of Atg5 (2) was engineered for stable expression of ATZ using the previously described pRc/RSV-ATZ expression plasmid (3). A wild type MEF cell line was also engineered for stable expression of ATZ in the same way to serve as control. For experiments with CBZ, the inducible cell lines were cultured in the absence of doxycycline for at least 4 weeks for maximal expression of AT. The cells were then subcultured into separate monolayers in fresh complete growth medium and incubated for 48 hours in the absence or presence of CBZ or rapamycin (RAP). CBZ or RAP were added to the growth medium. The duration of incubation with CBZ was determined to be optimal at 48 hours based on experiments in which the duration was varied from 12 to 72 hours. Doses of CBZ were based on previous studies of its effects in cell lines (5,6). Doses of RAP were based on previous positive effects on autophagic disposal of polyglutamine-repeat proteins (7). After the incubation cells were homogenized and cell homogenates separated into insoluble and soluble fractions according to our previously established technique (8). Samples of 20 μgs each were subjected to immunoblot analysis for AT, BiP and GAPDH.
as §1

[3] = system: ATZ in the liver; assay: Hepatic load of ATZ in vivo in PiZ×GFP-LC3 mice (immunoblot, globule histology); design: species or system mouse; conditions: PiZ mice, 2 mg/kg/day intraperitoneal for 2 weeks, FIG. 5C
Source text: Transgenic Mice PiZ mice that have been bred into the C57/BL6 background have been described previously (1). For the second and third series of experiments with CBZ we used PiZ mice that were re-derived onto the FVB/N background for a move into a new animal facility. The transgene that was used to generate the PiZ mouse is a genomic fragment of DNA that contains the coding regions of the ATZ gene together with introns and ˜2 kilobases of upstream and downstream flanking regions (10). […] In this perspective it is not an exact phenocopy of the classical form of AT deficiency. In particular it cannot be a model for the loss-of-function mechanisms associated with the classical form of AT deficiency. It is known to have abundant expression of ATZ in hepatocytes and other cell types that express ATZ in humans (11). In the liver there are abundant ATZ-containing intrahepatocytic globules and inflammation that is characteristic of what is seen in the human liver (11,12). […] Taken together, these observations indicate that the PiZ mouse is an appropriate model for the gain-of-toxic function mechanism that is responsible for liver damage in the classical form of AT deficiency. Indeed, the fact that these mice are endowed with endogenous AT function and therein normal levels of AT in the serum and body fluids make them an even more ‘pure’ model for liver damage by gain-of-toxic function. PiZ×GFP-LC3 mice, which generated green fluorescent autophagosomes, have been described previously (2). PiZ×IKKβ.hep were generated by mating of PiZ to IKKβ.hep, which has conditional hepatocyte-specific disruption of NF.B activation (M. Karin, 17). There is increased injury in the liver of these mice as evidenced by the hepatic hydroxyproline content, 153.3% of that in the PiZ mouse (FIG. 7).
Histology Sections of liver tissue were stained with hematoxylin and eosin, PAS, PAS after diastase treatment, TUNEL, PCNA, Ki67 and Sirius Red using standard techniques (18). Previous methods for staining with antibody to smooth muscle actin were used (19). Each was examined by the pathologist (GM) who was completely blinded to the experimental protocol. […] The number of inflammatory nodules, AT-containing globules and autophagosomes were each quantified blindly by counting cells in 6 microscopic fields of 10 different sections for each liver. The number of nuclei, as determined by Hoechst staining, was used to exclude the possibility that different numbers of cells were counted in liver sections from mice treated with CBZ as compared to controls. Hepatic hydroxyproline concentration was determined by a well-established protocol (20,21). […]
For immunoblot on liver, the liver was snap frozen in liquid nitrogen and stored at −80° C. […] Total protein concentration was measured by BCA assay (Pierce). […]

[4] = 48 hours incubation, immunoblot

SMILES: CC(C)C[C@@H](C=O)NC(=O)[C@H](CC(C)C)NC(=O)[C@H](CC(C)C)NC(=O)OCc1ccccc1 [MG132] (Cbz-Leu-Leu-Leu-aldehyde)
- levels of ATZ with proteasomal inhibitor alone [1]: Increased levels
- levels of insoluble ATZ in the presence of CBZ [1]: no effect

SMILES: NC(=O)N1c2ccccc2CC(=O)c2ccccc21 [OBZ, 10,11-dihydro-10-oxo-5H-dibenz[b,f]azepine-5-carboxamide]
- steady-state levels of ATZ, insoluble fraction [2, 4]: marked decrease
- steady-state levels of ATZ, soluble fraction [2, 4]: minimal effect
- lowest dose with evident effect on insoluble ATZ ([2]; 48 hrs, FIG. 9): 0.1 µM

SMILES: CC(=O)N[C@@H](CSC(=O)[C@]1([C@@H](O)C(C)C)NC(=O)[C@H](C)[C@@H]1O)C(=O)O [lactacystin]
- levels of ATZ with proteasomal inhibitor alone [1]: Increased levels
- reversal of the effect of CBZ on levels of soluble ATZ ([1]; lactacystin 10 μM for last 6 hours of CBZ incubation, mean SD, n=3): 23.1±14.0%
- levels of insoluble ATZ in the presence of CBZ [1]: no effect

SMILES: CO[C@H]1C[C@@H]2CC[C@@H](C)[C@@](O)(O2)C(=O)C(=O)N2CCCC[C@H]2C(=O)O[C@H]([C@H](C)C[C@@H]2CC[C@@H](O)[C@H](OC)C2)CC(=O)[C@H](C)/C=C(\C)[C@@H](O)[C@@H](OC)C(=O)[C@H](C)C[C@H](C)/C=C/C=C/C=C/1C [rapamycin]
- ATZ levels (insoluble and soluble fractions) ([2]; 48-hour incubation, FIG. 1B): no effect
- hepatic ATZ levels [3]: no effect
